# Measurements from patent US11066393B2, “Indolin-2-one derivatives” (Hoffmann-La Roche Inc., priority 2015, dated 2021).
# Assays:
# mouse ENT-1 transporter = molecular target: T1, mouse ENT-1 transporter (Mus musculus, UniProt Q9JIM1); assay: Adenosine transport activity (ENT1, [3H]-adenosine uptake); assay type: cell-based; conditions: stable cells expressing mouse ENT-1; [2,8-3H]-adenosine 6 nM, 20 min
# T1 construct: expressed in transfected cells
# T1 sequence (Q9JIM1 1-460): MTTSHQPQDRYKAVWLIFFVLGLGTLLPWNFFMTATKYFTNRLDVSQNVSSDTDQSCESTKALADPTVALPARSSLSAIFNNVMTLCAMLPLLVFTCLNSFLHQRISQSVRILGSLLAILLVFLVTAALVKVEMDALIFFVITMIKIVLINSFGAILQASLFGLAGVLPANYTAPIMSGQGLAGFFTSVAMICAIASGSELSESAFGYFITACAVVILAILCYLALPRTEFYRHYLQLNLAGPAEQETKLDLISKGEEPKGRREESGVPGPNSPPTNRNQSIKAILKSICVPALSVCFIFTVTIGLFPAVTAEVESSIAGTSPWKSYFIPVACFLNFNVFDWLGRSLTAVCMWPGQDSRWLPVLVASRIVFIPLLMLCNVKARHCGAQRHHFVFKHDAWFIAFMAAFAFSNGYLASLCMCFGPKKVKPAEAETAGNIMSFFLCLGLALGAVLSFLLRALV
# Protocol: To measure adenosine transport activity of ENT-1 mammalian cells, stable cells expressing the mouse ENT-1 transporter were plated on day 1 in 96-well culture plates at the density of 60,000 cells/well, in complete DMEM/F12 medium supplemented with glutamax, 10% FBS and 10 μg/ml puromycin. On day 2, the medium was aspirated and the cells were washed twice with uptake buffer (10 mM Hepes-Tris, pH 7.4 containing 150 mM NaCl, 1 mM CaCl2, 2.5 mM KCl, 2.5 mM MgSO4, 10 mM D-glucose) (UB). For inhibition experiments, cells were then incubated at RT with various concentrations of compounds with 1% DMSO final. Non-specific uptake was defined in the presence of 10 μM S-(4-Nitrobenzyl)-6-thioinosine (NBTI, Sigma Cat #N2255).
# A solution containing [2,8-^3H]-adenosine 6 nM (40 Ci/mmol, American Radiolabeled chemicals Inc, Cat #ART 0287A) was then immediately added to the wells. The plates were then incubated for 20 min with gentle shaking and the reaction was stopped by aspiration of the mixture and washing (three times) with ice-cold UB. The cells were lysed by the addition of scintillation liquid, shaken 3 hours and the radioactivity in the cells was estimated using a microplates scintillation counter (TopCount NXT, Packard).
# [1] = test system: L-687,414-induced hyperlocomotion; assay: Reduction of L-687,414-induced hyperlocomotion; assay type: in vivo, mouse; conditions: mice, dose 30 mg/kg ip, 15 min before s.c. 50 mg/kg L-687,414
# From the text: The authors described that hyperlocomotion induced by L-687,414 was inhibited by a series of known antipsychotic drugs. […] These findings predict antipsychotic activity for the present compounds, making them useful for the treatment of positive (psychosis) and negative symptoms of schizophrenia, substance abuse, alcohol and drug addiction, obsessive-compulsive disorders, cognitive impairment, bipolar disorders, mood disorders, major depression, resistant depression, anxiety disorders, Alzheimer's disease, autism, Parkinson's disease, chronic pain, borderline personality disorder, sleep disturbances, chronic fatigue syndrome, stiffness, antiinflammatory effects in arthritis and balance problems, epilepsy and neurodevelopmental disorders with co-morbid epilepsy.
# The described compounds of formula I reduce L-687,414-induced hyperlocomotion. This was assessed by using a computerized Digiscan 16 Animal Activity Monitoring System (Omnitech Electronics, Columbus, Ohio) to quantify locomotor activity. Animals were kept under a 12 h light/dark cycle and experiments were performed during the light period. Each activity monitoring chamber consisted of a Plexiglas box (41×41×28 cm; W×L×H) with sawdust bedding on the floor surrounded by invisible horizontal and vertical infrared sensor beams. The test boxes were divided by a Plexiglas cross providing each mouse with 20×20 cm of moving space. Cages were connected to a Digiscan Analyzer linked to a computer that constantly collected the beam status information. Records of photocell beam interruptions for individual animals were taken every 5 min over the duration of the experimental session and the sum of the first 6 periods was used as the final parameter. At least 8 mice were used in each treatment group. Compounds were administered i.p. 15 min before a s.c. injection of 50 mg/kg of L-687,414. Mice were then transferred from their home cage to the recording chambers for a 15-min habituation phase allowing free exploration of the new environment. Horizontal activity was then recorded for a 30-min time period. The % inhibition of L-687,414-induced hyperlocomotion was calculated according to the equation: ((Veh+L-687,414 horizontal activity−drug+L-687,414 horizontal activity)/Veh+L-687,414 horizontal activity)×100
# ID50 values, defined as doses of each compound producing 50% inhibition of L-687,414-induced hyperlocomotion, were calculated by linear regression analysis of a dose-response data using an Excel-based computer-fitting program. As data was not presupposed to be normally distributed, groups treated with test compounds were statistically compared with the control (vehicle-treated) group using one-tailed Mann Whitney U tests. In statistics, the Mann-Whitney U test (also called the Mann-Whitney-Wilcoxon (MWW) or Wilcoxon rank-sum test) is a non-parametric statistical hypothesis test for assessing whether one of two samples of independent observations tends to have larger values than the other. It is one of the most well-known non-parametric significance tests. […] P values given in table 1 are one-tailed since only decreases in locomotion were expected and tested for (Mann, H. B., Whitney, D. R. (1947), “On a Test of Whether one of Two Random Variables is Stochastically Larger than the Other”, Annals of Mathematical Statistics, 18 (1), 50-60).
Compound,IC50 (mouse ENT-1 transporter) [µM],"Inhibition, ip [%] of L-687,414-induced hyperlocomotion [1] [%]"
"CNC(=O)c1cccc(N2C(=O)C(C)(C)c3ccc(-c4cnc(C)nc4)cc32)n1 [Example 22, 6-(3,3-Dimethyl-6-(2-methylpyrimidin-5-yl)-2-oxoindolin-1-yl)-N-methylpicolinamide]",0.0085,95.6
"Cc1ncc(-c2ccc3c(c2)N(c2ccc(C(=O)N(C)C)cn2)C(=O)C3(C)C)cn1 [Example 29, 6-(3,3-Dimethyl-6-(2-methylpyrimidin-5-yl)-2-oxoindolin-1-yl)-N,N-dimethylnicotinamide]",0.585,93
"CNC(=O)c1ccnc(N2C(=O)C(C)(C)c3ccc(-c4cnc(C)nc4)cc32)n1 [Example 16, 2-(3,3-Dimethyl-6-(2-methylpyrimidin-5-yl)-2-oxoindolin-1-yl)-N-methylpyrimidine-4-carboxamide]",0.241,94.6
"Cc1ncc(-c2ccc3c(c2)N(c2cccc(C(=O)NC4CC4)n2)C(=O)C3(C)C)cn1 [Example 24, N-Cyclopropyl-6-(3,3-dimethyl-6-(2-methylpyrimidin-5-yl)-2-oxoindolin-1-yl)picolinamide]",0.0458,99.1
"COCCNC(=O)c1cncc(N2C(=O)C(C)(C)c3ccc(-c4cnc(C)nc4)cc32)n1 [Example 7, 6-(3,3-Dimethyl-6-(2-methylpyrimidin-5-yl)-2-oxoindolin-1-yl)-N-(2-methoxyethyl)pyrazine-2-carboxamide]",0.0884,88.1
"Cc1ncc(-c2ccc3c(c2)N(c2cnc(C(=O)N(C)C)cn2)C(=O)C3(C)C)cn1 [Example 11, 5-[3,3-Dimethyl-6-(2-methylpyrimidin-5-yl)-2-oxoindol-1-yl]-dimethylpyrazine-2-carboxamide]",0.123,98.4
"CNC(=O)c1cncc(N2C(=O)C(C)(C)c3ccc(-c4cnc(C)nc4)cc32)n1 [Example 2, 6-(3,3-Dimethyl-6-(2-methylpyrimidin-5-yl)-2-oxoindolin-1-yl)-N-methylpyrazine-2-carboxamide]",0.028,97.5
